Counter-ions that a name gives are not always drawn.
Assays:
human 5-HT3 receptor = target: T1, human 5-HT3 receptor (Homo sapiens, UniProt P46098); experiment: Measurement of affinity to human 5-HT3 receptor (in vitro), [3H]BRL-43694 binding; settings: test compound 100 nmols/L, [3H]BRL-43694 0.5 nmols/L, HEK-293 cell membrane expressing human 5-HT3 receptor; for inhibition at 0.1 µM: read-out: Percent Inhibition (%) on Each Receptor's Binding at 10^−7M, 5-HT3
T1 construct: purchased BIOLINKS K.K; host or cells: HEK-293 cells (membrane preparation)
T1 sequence (P46098 24-478): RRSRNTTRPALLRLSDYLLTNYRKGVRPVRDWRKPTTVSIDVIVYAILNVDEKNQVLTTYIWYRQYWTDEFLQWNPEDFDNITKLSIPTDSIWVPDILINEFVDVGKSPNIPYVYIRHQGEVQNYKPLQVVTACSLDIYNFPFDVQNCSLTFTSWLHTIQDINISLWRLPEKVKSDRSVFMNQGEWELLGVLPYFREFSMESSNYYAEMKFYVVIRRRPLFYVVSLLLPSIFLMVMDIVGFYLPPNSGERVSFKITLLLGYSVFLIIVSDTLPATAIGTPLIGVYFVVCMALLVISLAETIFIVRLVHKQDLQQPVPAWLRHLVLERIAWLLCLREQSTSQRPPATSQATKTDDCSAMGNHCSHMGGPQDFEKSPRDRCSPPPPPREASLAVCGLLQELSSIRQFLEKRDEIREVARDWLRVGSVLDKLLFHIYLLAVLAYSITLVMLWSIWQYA
Protocol: (2) Measurement of Affinity of Each Test Compound to Human 5-HT3 Receptor (in Vitro):
HEK-293 cell membrane sample in which human 5-HT3 receptor was expressed (purchased from BIOLINKS K.K.) 0.05 mL (about 50 microassay) was added to 24.95 mL of incubation buffer solution B (an aqueous solution of a mixture of 50 mmols/L of Tris-hydrochloric acid, 5 mmols/L of magnesium chloride and 1 mmol/L of EDTA, whose pH was adjusted to 7.5 at 25° C. with 1N-aqueous sodium hydroxide solution) and homogenized, to provide a membrane sample suspension B. Separately, each test compound was made into 270 μmols/L of DMSO solution and diluted to a prescribed concentration with the incubation buffer solution B to provide a compound solution.
A piece of polypropylene tube was charged with 20 μL of [^3H]BRL-43694 (purchased from Daiichi Pure Chemicals Co., Ltd.) (The concentration of [^3H]BRL-43694 had been advancedly adjusted to render its concentration in the reaction mixture to 0.5 nmols/L.) and 20 μL of one of the compound solutions. Further 500 μL of the membrane sample suspension B was added into the tube, followed by 60 minutes' incubation at 25° C. The reaction was terminated by rapid filtration of the reaction mixture through GF/B filter which had been advancedly immersed in a solution formed by adding to the incubation buffer solution B polyethyleneimine to a concentration of 0.5%, using Brandel cell harvester. Then the filter was washed with about 5 mL of 50 mmols/L of Tris-hydrochloric acid which had been cooled to 4° C. The filter was once again washed after similar operation.
(§1) Residual radioactivity on the filter was measured with liquid scintillation counter (ALOKA CO., LTD. LSC-5100). Percent inhibition (%) of each test compound to binding of [^3H]BRL-43694 to 5-HT3 receptor at a concentration of 0.5 nmols/L, i.e., affinity of each test compound to 5-HT3 receptor, can be calculated according to the following expression. The ratio of non-specific binding was calculated by measuring the radioactivity in case of using tropisetron: (ICS 205-930) at a concentration of 10 μmols/L, with which value the measured value of each test compound was compensated.
(§2) Affinity of each test compound to 5-HT1A receptor and 5-HT3 receptor at a concentration of 100 nmols/L were as shown in the following Tables A-1 and A-2. BRL-43694 and tropisetron (ICS 205-930), which were used in measuring affinity of those compounds to 5-HT3 receptor, have the following structures: […]

human 5-HT1A receptor = target: T2, human 5-HT1A receptor (Homo sapiens, UniProt P08908); experiment: Affinity measurement of the compounds to human 5-HT1A receptor (in vitro), [3H]8-OH-DPAT binding; settings: test compound 100 nmols/L, [3H]8-OH-DPAT 0.25 nmols/L, CHO cell membrane expressing human 5-HT1A receptor; for inhibition at 0.1 µM: read-out: Percent Inhibition (%) on Each Receptor's Binding at 10^−7M, 5-HT1A
T2 construct: purchased Packard Bioscience; host or cells: CHO cells (membrane preparation)
T2 sequence (P08908 1-422): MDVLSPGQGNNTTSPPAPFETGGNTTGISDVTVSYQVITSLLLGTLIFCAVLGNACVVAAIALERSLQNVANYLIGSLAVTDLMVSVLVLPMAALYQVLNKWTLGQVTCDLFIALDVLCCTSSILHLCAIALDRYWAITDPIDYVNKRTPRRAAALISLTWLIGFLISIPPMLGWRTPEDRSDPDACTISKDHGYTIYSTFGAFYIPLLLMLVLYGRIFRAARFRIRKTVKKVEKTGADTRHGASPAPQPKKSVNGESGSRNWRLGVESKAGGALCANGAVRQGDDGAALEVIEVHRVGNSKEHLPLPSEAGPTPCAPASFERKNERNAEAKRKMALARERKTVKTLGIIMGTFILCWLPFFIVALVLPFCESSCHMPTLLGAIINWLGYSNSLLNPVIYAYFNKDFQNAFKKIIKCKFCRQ
Protocol: (1) Affinity Measurement of the Compounds to Human 5-HT1A Receptor (in Vitro)
CHO cell membrane sample in which human 5-HT1A receptor was expressed (purchased from Packard Bioscience) 0.25 mL (about 50 units) was added to 24.75 mL of incubation buffer solution A (an aqueous solution of a mixture of 50 mmols/L of Tris-hydrochloric acid, 10 mmols/L of magnesium sulfate, 0.5 mmols/L of EDTA and 0.1% ascorbic acid, whose pH was adjusted to 7.4 at 27° C. with 1N-aqueous sodium hydroxide solution), and labeled as membrane sample suspension A. Separately, each test compound was made into 270 μmols/L DMSO solution and diluted to a prescribed concentration with the incubation buffer solution A, to provide a compound solution.
A piece of polypropylene tube was charged with 20 μL of [^3H]8-OH-DPAT (8-hydroxy-2-(di-n-propylamino)tetralin; purchased from Daiichi Pure Chemicals Co., Ltd.) (The concentration of the [^3H]8-OH-DPAT had been advancedly adjusted to render its concentration in the reaction mixture to 0.25 nmols/L) and 20 μL of one of the compound solutions. Further 500 μL of the membrane sample suspension A was added into the tube, followed by 60 minutes' incubation at 27° C. The reaction was terminated by rapid filtration of the reaction mixture through GF/C filter which had been advancedly immersed in a solution formed by adding to the incubation buffer solution A polyethyleneimine to a concentration of 0.3%, using Brandel cell harvester. Then the filter was washed with about 5 mL of 50 mmols/L of Tris-hydrochloric acid which had been cooled to 4° C. The filter was once again washed after similar operation.
as §1, with “(Aloka Co.,” for “(ALOKA CO., LTD.”, “[^3H]8-OH-DPAT” for “[^3H]BRL-43694”, “5-HT1A” for “5-HT3”, “0.25” for “0.5”, “8-OH-DPAT” for “tropisetron: (ICS 205-930)”
as §2

O=c1c2c(nc(CCCCN3CCN(c4ccc5ccccc5n4)CC3)n1Cc1ccccc1)CCCC2 [Example 7-4, 3-benzyl-2-[4-(4-quinolin-2-ylpiperazin-1-yl)butyl]-5,6,7,8-tetrahydro-3H-quinazolin-4-one]
inhibition at 0.1 µM (human 5-HT3 receptor): 61.2%
inhibition at 0.1 µM (human 5-HT1A receptor): 85%

Cc1cc(N2CCN(CCCSc3nc4sc5c(c4c(=O)n3N)CCCC5)CC2)nc2ccccc12 [Example 1-33]
Percent Inhibition (%) on Each Receptor's Binding at 10^−7M, 5-HT3 (human 5-HT3 receptor): 94.2%
Percent Inhibition (%) on Each Receptor's Binding at 10^−7M, 5-HT1A (human 5-HT1A receptor): 94.0%

CC1CCc2nc(CCCCN3CCN(c4ccc5ccccc5n4)CC3)n(N)c(=O)c2C1 (centres unmarked) [Example 4-60, 3-amino-6-methyl-2-[4-(4-quinolin-2-ylpiperazin-1-yl)butyl]-5,6,7,8-tetrahydro-3H-quinazolin-4-one]
inhibition at 0.1 µM (human 5-HT3 receptor): 91.5%
inhibition at 0.1 µM (human 5-HT1A receptor): 96.9%

c1cc2ccoc2c(N2CCN3CCCCC3C2)n1 (centres unmarked) [Production Example 118, 7-octahydropyrido[1,2-a]pyrazin-2-ylfuro[2,3-c]pyridine]
inhibition at 0.1 µM (human 5-HT3 receptor): 84.9%
inhibition at 0.1 µM (human 5-HT1A receptor): 76%

Clc1ccc2c(N3CCNCC3)nccc2c1 [Production Example 57, 6-chloro-1-piperazin-1-ylisoquinoline]
inhibition at 0.1 µM (human 5-HT3 receptor): 96.5%
inhibition at 0.1 µM (human 5-HT1A receptor): 88.9%

Cc1cc2c(N3CCN4CCC[C@@H]4C3)nccc2o1 [Production Example 115, 4-((8aR)-octahydropyrrolo[1,2-a]pyrazin-2-yl)-2-methylfuro[3,2-c]pyridine]
inhibition at 0.1 µM (human 5-HT3 receptor): 74.3%
inhibition at 0.1 µM (human 5-HT1A receptor): 82%

O=c1[nH]c(NCCCN2CCN(c3ccc4ccccc4n3)CC2)nc2c1CCCC2 [Example 5-1, 2-[3-(4-quinolin-2-ylpiperazin-1-yl)propylamino]-5,6,7,8-tetrahydro-3H-quinazolin-4-one]
inhibition at 0.1 µM (human 5-HT3 receptor): 94.8%
inhibition at 0.1 µM (human 5-HT1A receptor): 74%

COc1ccc2ccnc(N3CCN(Cc4ccc5c(c4)OCO5)CC3)c2c1 [Production Example 71, 1-(4-benzo[1,3]dioxol-5-ylmethylpiperazin-1-yl)-7-methoxyisoquinoline]
inhibition at 0.1 µM (human 5-HT3 receptor): 42.2%
inhibition at 0.1 µM (human 5-HT1A receptor): 94.8%

c1cc2sccc2c(N2CCN3CCC[C@@H]3C2)n1 [Production Example 109, 4-((8aR)-octahydropyrrolo[1,2-a]pyrazin-2-yl)thieno[3,2-c]pyridine]
inhibition at 0.1 µM (human 5-HT3 receptor): 92.5%
inhibition at 0.1 µM (human 5-HT1A receptor): 75.4%

NN1Oc2c(sc3c2CCNC3)N=C1SCCCN1CCN(c2ccc3ccccc3n2)CC1 [Example 1-59, 3-amino-2-[3-(4-quinolin-2-ylpiperazin-1-yl)propylthio]-3,4,5,6,7,8-hexahydro-4-oxa-9-thia-1,3,7-triaza-9H-fluorene trihydrochloride]
inhibition at 0.1 µM (human 5-HT3 receptor): 50%
inhibition at 0.1 µM (human 5-HT1A receptor): 100%

CN1CCN(c2nc(Cl)cc3ccccc23)CC1 [Production Example 16, 3-chloro-1-(4-methylpiperazin-1-yl)isoquinoline dihydrochloride]
inhibition at 0.1 µM (human 5-HT3 receptor): 99.2%
inhibition at 0.1 µM (human 5-HT1A receptor): 61.1%

NS(=O)(=O)Oc1ccc2ccnc(N3CCN4CCC[C@H]4C3)c2c1 [Production Example 87]
inhibition at 0.1 µM (human 5-HT3 receptor): 96.9%
inhibition at 0.1 µM (human 5-HT1A receptor): 96.4%

CCCc1cc(=O)[nH]c(SCCCN2CCN(c3ccc4ccccc4n3)CC2)n1 [Example 2-14, 6-propyl-2-[3-(4-quinolin-2-ylpiperazin-1-yl)propylthio]-3H-pyrimidin-4-one]
inhibition at 0.1 µM (human 5-HT3 receptor): 51.9%
inhibition at 0.1 µM (human 5-HT1A receptor): 57.7%

Cn1c(SCCCN2CCN(c3ccc4ccccc4n3)CC2)nc2c(c1=O)CCCC2 [Example 7-27]
inhibition at 0.1 µM (human 5-HT3 receptor): 90.2%
inhibition at 0.1 µM (human 5-HT1A receptor): 87%

COc1ccc2c(N3CCNCC3)nccc2c1 [Production Example 40, 6-methoxy-1-piperazin-1-ylisoquinoline]
inhibition at 0.1 µM (human 5-HT3 receptor): 99.3%
inhibition at 0.1 µM (human 5-HT1A receptor): 42.9%

CC1CCc2c(sc3nc(SCCCN4CCN(c5ccc6ccccc6n5)CC4)n(N)c(=O)c23)C1 (centres unmarked) [Example 1-31, 3-amino-7-methyl-2-[3-(4-quinolin-2-ylpiperazin-1-yl)propylthio]-5,6,7,8-tetrahydro-3H-benzo[4,5]thieno[2,3-d]pyrimidin-4-one]
inhibition at 0.1 µM (human 5-HT3 receptor): 92.4%
inhibition at 0.1 µM (human 5-HT1A receptor): 97.9%

Nn1c(CCCCN2CCN(c3ccc4ccccc4n3)CC2)nc2c(c1=O)CCCCC2 [Example 4-42, 3-amino-2-[4-(4-quinolin-2-ylpiperazin-1-yl)butyl]-5,6,7,8,9-pentahydro-3H-cyclohepta[d]pyrimidin-4-one]
inhibition at 0.1 µM (human 5-HT3 receptor): 58.5%
inhibition at 0.1 µM (human 5-HT1A receptor): 95.8%

c1ccc(CO[C@@H]2C[C@H]3CN(c4nccc5ccsc45)CCN3C2)cc1 [Production Example 116, 7-((7R,8aS)-7-benzyloxyoctahydropyrrolo[1,2-a]pyrazin-2-yl)thieno-[2,3-c]pyridine]
inhibition at 0.1 µM (human 5-HT3 receptor): 25.6%
inhibition at 0.1 µM (human 5-HT1A receptor): 70.6%

Cc1ccc2nc(CCCCN3CCN(c4ccc5ccccc5n4)CC3)n(N)c(=O)c2c1 [Example 4-20, 3-amino-6-methyl-2-[4-(4-quinolin-2-ylpiperazin-1-yl)butyl]-3H-quinazolin-4-one]
inhibition at 0.1 µM (human 5-HT3 receptor): 87.8%
inhibition at 0.1 µM (human 5-HT1A receptor): 94.3%
